Assay results from PubChem BioAssay AID330 (DTP/NCI, 2004).
Several values for one entry are separate records, joined by “and”; a condition that tells them apart may be missing. Identical values can stand only once. Inconclusive results and toxic doses are left out.

Test system: P388 leukemia ip, CD2F1 mice, survival T/C
Experiment: NCI In Vivo Anticancer Drug Screen. Data for tumor model P388 Leukemia (intraperitoneal) in CD2F1 (CDF1) mice
Details: endpoint: median survival time, higher = longer survival
Method in brief: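 Mice carrying the transplanted tumor received test compound or vehicle. Survival was recorded in each group, and the value is the treated-group measurement divided by that of the vehicle-treated control group.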

[1] = dose: 50.0 mg/kg/injection, schedule: Q01DX005 (ip), vehicle: saline
[2] = dose: 100.0 mg/kg/injection, schedule: Q01DX005 (ip), vehicle: saline
[3] = dose: 200.0 mg/kg/injection, schedule: Q01DX005 (ip), vehicle: saline
[4] = dose: 50.0 mg/kg/injection, schedule: Q01DX005 (ip), vehicle: saline with Tween-80
[5] = dose: 100.0 mg/kg/injection, schedule: Q01DX005 (ip), vehicle: saline with Tween-80
[6] = dose: 200.0 mg/kg/injection, schedule: Q01DX005 (ip), vehicle: saline with Tween-80
[7] = dose: 60.0 mg/kg/injection, schedule: Q01DX005 (ip), vehicle: saline with Tween-80
[8] = dose: 120.0 mg/kg/injection, schedule: Q01DX005 (ip), vehicle: saline with Tween-80
[9] = dose: 240.0 mg/kg/injection, schedule: Q01DX005 (ip), vehicle: saline with Tween-80
[10] = dose: 60.0 mg/kg/injection, schedule: Q01DX005 (ip), vehicle: saline
[11] = dose: 120.0 mg/kg/injection, schedule: Q01DX005 (ip), vehicle: saline
[12] = dose: 50.0 mg/kg/injection, schedule: Q01DX009 (ip), vehicle: saline with Tween-80
[13] = dose: 100.0 mg/kg/injection, schedule: Q01DX009 (ip), vehicle: saline with Tween-80
[14] = dose: 200.0 mg/kg/injection, schedule: Q01DX009 (ip), vehicle: saline with Tween-80

CC(O)C(NCNC(=O)C1=C(O)C2(O)C(=O)C3=C(O)c4c(O)cccc4C(C)(O)C3CC2C(N(C)C)C1=O)C(=O)O (stereo not given)
T/C (dose: 25.0 mg/kg/injection, schedule: Q01DX005 (ip), vehicle: saline): 107 % of control
T/C [1]: 108 % of control
T/C [2]: 111 % of control
T/C (dose: 100.0 mg/kg/injection, schedule: Q04DX003 (ip), vehicle: saline with Tween-80): 104 % of control
T/C [3]: 100 % of control
T/C (dose: 200.0 mg/kg/injection, schedule: Q04DX003 (ip), vehicle: saline with Tween-80): 104 % of control
T/C (dose: 400.0 mg/kg/injection, schedule: Q04DX003 (ip), vehicle: saline with Tween-80): 104 % of control

CCOc1ccc(S(=O)(=O)c2ccc(C)cc2)c2c1no[n+]2[O-]
T/C (dose: 3.75 mg/kg/injection, schedule: Q01DX009 (ip), vehicle: saline with Tween-80): 101 % of control
T/C (dose: 7.5 mg/kg/injection, schedule: Q01DX009 (ip), vehicle: saline with Tween-80): 99 % of control and 95 % of control
T/C (dose: 15.0 mg/kg/injection, schedule: Q01DX009 (ip), vehicle: saline with Tween-80): 107 % of control

CCOP(=O)(CC(=O)NC(C(N)=O)C(C)C)OCC (stereo not given)
T/C [4]: 101 % of control
T/C [5]: 104 % of control
T/C [6]: 105 % of control

CCCC(N)C(=O)NC(Cc1c[nH]c2ccccc12)C(=O)O (stereo not given)
T/C [4]: 101 % of control
T/C [5]: 102 % of control
T/C [6]: 103 % of control

CC(C)C(=O)CCC(C)C1CCC2(C)C3CC=C4C(CCC(O)C4(C)C)C3(C)C(=O)CC12C (stereo not given)
T/C (dose: 100.0 mg/kg/injection, schedule: Q04DX002 (ip), vehicle: saline): 100 % of control
T/C (dose: 200.0 mg/kg/injection, schedule: Q04DX002 (ip), vehicle: saline): 98 % of control
T/C (dose: 400.0 mg/kg/injection, schedule: Q04DX002 (ip), vehicle: saline): 99 % of control

O=C(N/C(=C\c1ccccc1Cl)c1nc2ccccc2s1)c1ccccc1
T/C [7]: 113 % of control
T/C [8]: 113 % of control
T/C [9]: 102 % of control

Cc1ccc(/C=C2/C/C(=C\c3ccc(C)cc3)C2=O)cc1
T/C (dose: 12.5 mg/kg/injection, schedule: Q04DX003 (ip), vehicle: Klucel (hydroxypropylcellulose) (HPC)): 94 % of control
T/C (dose: 25.0 mg/kg/injection, schedule: Q04DX003 (ip), vehicle: Klucel (hydroxypropylcellulose) (HPC)): 92 % of control
T/C (dose: 50.0 mg/kg/injection, schedule: Q04DX003 (ip), vehicle: Klucel (hydroxypropylcellulose) (HPC)): 87 % of control
T/C (dose: 400.0 mg/kg/injection, schedule: Q04DX003 (ip), vehicle: Klucel (hydroxypropylcellulose) (HPC)): 88 % of control

Cc1onc(-c2ccccc2)c1C(=O)N/N=C/c1cc(Cl)cc(Cl)c1O
T/C (dose: 50.0 mg/kg/injection, schedule: Q01DX009 (ip), vehicle: saline): 103 % of control
T/C (dose: 100.0 mg/kg/injection, schedule: Q01DX009 (ip), vehicle: saline): 91 % of control
T/C (dose: 200.0 mg/kg/injection, schedule: Q01DX009 (ip), vehicle: saline): 99 % of control

O=C1OC(Nc2ccccc2)C(Cl)=C1Cl (stereo not given)
T/C [7]: 102 % of control
T/C [8]: 104 % of control
T/C [9]: 103 % of control

CCOC(=O)CCc1cnc[nH]1
T/C [10]: 108 % of control
T/C [11]: 106 % of control
T/C (dose: 240.0 mg/kg/injection, schedule: Q01DX005 (ip), vehicle: saline): 98 % of control

COc1cc2c(c(OC)c1OC)-c1cc3c(cc1C(OC(C)=O)C1COC(=O)C1C2)OCO3 (stereo not given)
T/C (dose: 0.5 mg/kg/injection, schedule: Q04DX002 (ip), vehicle: acetone): 97 % of control and 104 % of control
T/C (dose: 1.0 mg/kg/injection, schedule: Q04DX002 (ip), vehicle: acetone): 102 % of control and 94 % of control
T/C (dose: 2.0 mg/kg/injection, schedule: Q04DX002 (ip), vehicle: acetone): 97 % of control and 104 % of control

COC(=O)C(CS[C@@H]1CCCC[C@H]1O)NC(C)=O (stereo not given in full)
T/C (dose: 40.0 mg/kg/injection, schedule: Q01DX005 (ip), vehicle: saline): 92 % of control
T/C [10]: 96 % of control
T/C [11]: 96 % of control

CCCCCCC(C)N=[N+]([O-])CBr (stereo not given)
T/C (dose: 100.0 mg/kg/injection, schedule: Q01DX001 (ip), vehicle: other): 114 % of control
T/C (dose: 200.0 mg/kg/injection, schedule: Q01DX001 (ip), vehicle: other): 111 % of control
T/C (dose: 400.0 mg/kg/injection, schedule: Q01DX001 (ip), vehicle: other): 103 % of control

O=P(c1ccccc1)(c1ccccc1)c1ccccc1 (tested in a mixture with another compound)
T/C (dose: 25.0 mg/kg/injection, schedule: Q01DX009 (ip), vehicle: other): 89 % of control

N#CC1C(=O)NN=C1c1cc2ccccc2oc1=O (stereo not given)
T/C (dose: 100.0 mg/kg/injection, schedule: Q01DX001 (ip), vehicle: saline): 97 % of control
T/C (dose: 200.0 mg/kg/injection, schedule: Q01DX001 (ip), vehicle: saline): 100 % of control
T/C (dose: 400.0 mg/kg/injection, schedule: Q01DX001 (ip), vehicle: saline): 97 % of control

CCCCC#CC(=O)OCC
T/C [7]: 101 % of control
T/C [8]: 106 % of control
T/C [9]: 113 % of control

O=C(O)/C=C/c1csc(-c2ccc(Cl)cc2)n1
T/C [12]: 88 % of control
T/C [13]: 88 % of control
T/C [14]: 106 % of control

CC(C)N1CC(CCN2CCOCC2)C(c2ccccc2)(C2CCCC2)C1=O (stereo not given)
T/C (dose: 50.0 mg/kg/injection, schedule: Q01DX009 (ip), vehicle: Klucel (hydroxypropylcellulose) (HPC)): 106 % of control
T/C (dose: 100.0 mg/kg/injection, schedule: Q01DX009 (ip), vehicle: Klucel (hydroxypropylcellulose) (HPC)): 101 % of control
T/C (dose: 200.0 mg/kg/injection, schedule: Q01DX009 (ip), vehicle: Klucel (hydroxypropylcellulose) (HPC)): 108 % of control

CCCOc1cc2c(cc1C/C=C/c1ccccc1)OCO2
T/C [4]: 94 % of control
T/C [5]: 100 % of control
T/C [6]: 102 % of control

CC(=O)N1OC2(C)c3ccccc3C1(C)c1ccccc12
T/C [12]: 100 % of control
T/C [13]: 94 % of control
T/C [14]: 92 % of control

ClC1COc2cc(c3ccccc3c2)-c2c(ccc3ccccc23)OCCOCCOc2ccc3ccccc3c2-c2c(ccc3ccccc23)OCC(Cl)O1 (stereo not given)
T/C (dose: 100.0 mg/kg/injection, schedule: Q04DX002 (ip), vehicle: saline with Tween-80): 102 % of control
T/C (dose: 200.0 mg/kg/injection, schedule: Q04DX002 (ip), vehicle: saline with Tween-80): 102 % of control
T/C (dose: 400.0 mg/kg/injection, schedule: Q04DX002 (ip), vehicle: saline with Tween-80): 105 % of control

CCOC(=O)NC(=Nc1cccc(C(=O)c2ccc3nc(NC(=O)OCC)[nH]c3c2)c1)NC(=O)OCC
T/C (dose: 15.0 mg/kg/injection, schedule: Q01DX005 (ip), vehicle: saline with Tween-80): 89 % of control
T/C (dose: 30.0 mg/kg/injection, schedule: Q01DX005 (ip), vehicle: saline with Tween-80): 94 % of control

OCc1ccc(Cl)cc1Cl
T/C [12]: 104 % of control
T/C [13]: 95 % of control
T/C [14]: 109 % of control

CC(=O)OC1C[C@@](C)(O)[C@@]23O[C@@H]2[C@@H]2O[C@]2(C)C3C2OC(=O)C(C)[C@H]12 (stereo not given in full)
T/C (dose: 937.5 micrograms/kg/injection, schedule: Q01DX005 (ip), vehicle: Klucel (hydroxypropylcellulose) (HPC)): 98 % of control
T/C (dose: 1875.0 micrograms/kg/injection, schedule: Q01DX005 (ip), vehicle: Klucel (hydroxypropylcellulose) (HPC)): 100 % of control
T/C (dose: 3750.0 micrograms/kg/injection, schedule: Q01DX005 (ip), vehicle: Klucel (hydroxypropylcellulose) (HPC)): 100 % of control
T/C (dose: 7500.0 micrograms/kg/injection, schedule: Q01DX005 (ip), vehicle: Klucel (hydroxypropylcellulose) (HPC)): 97 % of control

COc1cc2c(cc1OC)C(CC1CCN(C)CC1)NCC2 (stereo not given)
T/C [1]: 106 % of control
T/C [2]: 103 % of control
T/C [3]: 103 % of control

CCCCOC(=O)NC(=O)c1cc2cc(Br)cc(Br)c2oc1=O
T/C [7]: 94 % of control
T/C [8]: 101 % of control
T/C [9]: 92 % of control

CC(C)C(=O)C(O)C(C)C (stereo not given)
T/C [1]: 92 % of control
T/C [2]: 103 % of control
T/C [3]: 100 % of control

Nc1ccc(N(CCCl)CCN(CCCl)c2ccc(N)cc2)cc1
T/C (dose: 0.8 mg/kg/injection, schedule: Q01DX009 (ip), vehicle: saline sonified): 176 % of control
T/C (dose: 1.2 mg/kg/injection, schedule: Q01DX009 (ip), vehicle: saline sonified): 209 % of control
T/C (dose: 1.25 mg/kg/injection, schedule: Q01DX009 (ip), vehicle: saline): 177 % of control
T/C (dose: 2.5 mg/kg/injection, schedule: Q01DX009 (ip), vehicle: saline): 122 % of control
T/C (dose: 5.0 mg/kg/injection, schedule: Q01DX009 (ip), vehicle: saline): 90 % of control
T/C (dose: 5.0 mg/kg/injection, schedule: Q04DX003 (ip), vehicle: saline with Tween-80): 118 % of control
